According to patent publication US8173694B2, “Therapeutic agent” (Pentraxin Therapeutics Limited, priority 2001, dated 2012):

Target: T1, plasma SAP (Homo sapiens, UniProt P02743)
T1 construct: from tissue; host or cells: plasma of patients in vivo
Assay: Intravenous infusion for 48 h in patients: plasma SAP by electroimmunoassay
Format: in vivo
Description: Patients with different forms of systemic amyloidosis, and with varying amyloid loads received the doses of the drug shown for a period of 48 h. Circulating SAP values were measured by electroimmunoassay (24) in samples taken during and after the infusion, at the times shown. Each line represents a different individual patient.
(R)-1-[6-(R)-2-Carboxy-pyrrolidin-1-yl]-6-oxo-hexanoyl]pyrrolidine-2-carboxylic acid was administered for 48 h by intravenous infusion to 8 patients with systemic amyloidosis (7 with AL and one with AA type), one patient with minor localised AL amyloidosis, and one who is a carrier of the amyloidogenic Ala60 transthyretin variant but has no clinical amyloidosis. […] In initial studies with slow continuous infusion, the SAP concentration started to fall when about 2 mg of (R)-1-[6-(R)-2-Carboxy-pyrrolidin-1-yl]-6-oxo-hexanoyl]pyrrolidine-2-carboxylic acid had been given, and in subsequent studies this amount was therefore injected as a bolus at the outset, followed by infusion at the rates shown (FIG. 4). […] However, after drug infusion had ceased, the plasma SAP concentration rapidly returned to normal in the individuals with little or no amyloid, whereas this recovery was markedly delayed in subjects with significant amyloidosis. In the one patient with a very heavy amyloid load, the plasma SAP concentration remained below 25% of its initial value 20 days after the infusion. Most of the daily production of SAP, which is about 50-100 mg per day (15), was evidently distributing into the amyloid deposits before becoming available to replete the plasma pool. This is very strong indirect evidence that even such a brief infusion of (R)-1-[6-(R)-2-Carboxy-pyrrolidin-1-yl]-6-oxo-hexanoyl]pyrrolidine-2-carboxylic acid had substantially depleted the amyloid-associated SAP.
Two individual patients with systemic amyloidosis and moderate amyloid loads received (R)-1-[6-(R)-2-Carboxy-pyrrolidin-1-yl]-6-oxo-hexanoyl]pyrrolidine-2-carboxylic acid (desapin) by intravenous infusion at the steady rates shown. Circulating SAP concentrations started to fall almost immediately and had halved when the concentrations of drug and SAP protomer were equimolar.
The potency of (R)-1-[6-(R)-2-Carboxy-pyrrolidin-1-yl]-6-oxo-hexanoyl]pyrrolidine-2-carboxylic acid in depleting circulating SAP was remarkable, with SAP values falling when the concentration ratio of drug to SAP pentamer in the plasma approached equimolar (FIG. 7). […] This is evidently the species recognised as abnormal and promptly cleared by the liver.

T1 sequence (P02743 20-223): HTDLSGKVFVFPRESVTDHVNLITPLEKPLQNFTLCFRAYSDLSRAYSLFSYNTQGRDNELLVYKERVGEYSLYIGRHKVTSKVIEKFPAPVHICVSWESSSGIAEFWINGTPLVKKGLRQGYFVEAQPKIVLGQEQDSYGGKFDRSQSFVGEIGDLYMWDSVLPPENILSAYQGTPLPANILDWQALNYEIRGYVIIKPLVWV

Compound: O=C(O)[C@H]1CCCN1C(=O)CCCCC(=O)N1CCC[C@@H]1C(=O)O [(R)-1-[6-(R)-2-Carboxy-pyrrolidin-1-yl]-6-oxo-hexanoyl]pyrrolidine-2-carboxylic acid]
- SAP clearance from plasma by the end of the infusion (0.25 mg/kg/day and all higher rates up to 6 mg/kg/day): almost completely cleared
- Depletion of circulating SAP (48 h intravenous infusion, all 10 subjects): dramatic, rapid, and consistent depletion
- Plasma SAP concentration, of its initial value (20 days after the infusion, one patient with very heavy amyloid load): below 25%
- SAP depletion (infusion rate 0.1 mg/kg/day): slower and less complete
- Amount of drug given when SAP concentration started to fall (slow continuous intravenous infusion): about 2 mg
- Circulating SAP concentration when drug and SAP protomer concentrations were equimolar (two patients, 48 h intravenous infusion): halved
